Measurements published in PubChem BioAssay AID364 (The Scripps Research Institute Molecular Screening Center, 2006).
The source made the active and inactive calls.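 Rule for the calls: active = concentration giving half-maximal inhibition at or below 20 micromolar; inactive = half-maximal concentration above 20 micromolar, or not dose tested.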

Test system: Jurkat E6.1 viability, ATP luminescence, 48 h
Test: Jurkat cell viability reduction – Jurkat E6.1, NIH starter set, primary screen (AID 364)

First: CC[C@]1(O)C[C@@H]2CN(CCc3c([nH]c4ccccc34)[C@@](C(=O)OC)(c3cc4c(cc3OC)N(C)[C@H]3[C@@](O)(C(=O)OC)[C@H](OC(C)=O)[C@]5(CC)C=CCN6CC[C@]43[C@@H]65)C2)C1
Second: CC[C@]1(O)CC2CN(CCc3c([nH]c4ccccc34)[C@@](C(=O)OC)(c3cc4c(cc3OC)N(C=O)[C@H]3[C@@](O)(C(=O)OC)[C@H](OC(C)=O)[C@]5(CC)C=CCN6CC[C@]43[C@@H]65)C2)C1 (some centres not stated)
The CC50 of the first is higher: 13.6 nM for the first, less than 3 nM for the second.

Going from `COc1cccc2c1C(=O)c1c(O)c3c(c(O)c1C2=O)C[C@@](O)(C(C)=O)C[C@@H]3O[C@H]1C[C@H](N)[C@H](O)[C@H](C)O1` to `COc1cccc2c1C(=O)c1c(O)c3c(c(O)c1C2=O)C[C@@](O)(C(=O)CO)C[C@@H]3O[C@H]1C[C@H](N)[C@H](O)[C@H](C)O1`, the CC50 rises from 151 nM to 261 nM (1.7-fold).

Compared with `c1cc2c(cc1C1=Nn3c(nnc3C3CCCCC3)SC1)OCO2`, `COc1ccccc1-c1nnc2n1N=C(c1ccc(O)c(O)c1)CS2` is 120-fold lower in CC50: 6930 nM for the first, 58.2 nM for the second.

Compared with `Cc1ccc(NC(=O)CSc2nnc(-c3ccco3)c(-c3ccco3)n2)cc1`, `COc1cccc(NC(=O)CSC2=C(C#N)C(c3ccco3)C3=C(CCCC3=O)N2)c1` (configuration not stated) is 2.8-fold higher in CC50: 1710 nM for the first, 4730 nM for the second.

`CC(=O)O[C@@]12CO[C@@H]1C[C@H](O)[C@@]1(C)C(=O)[C@H](O)C3=C(C)[C@@H](OC(=O)[C@H](O)[C@@H](NC(=O)OC(C)(C)C)c4ccccc4)C[C@](O)([C@@H](OC(=O)c4ccccc4)[C@H]21)C3(C)C` and `CC(=O)O[C@H]1C(=O)[C@]2(C)[C@H]([C@H](OC(=O)c3ccccc3)[C@]3(O)C[C@H](OC(=O)[C@H](O)[C@@H](NC(=O)c4ccccc4)c4ccccc4)C(C)=C1C3(C)C)[C@]1(OC(C)=O)CO[C@@H]1C[C@@H]2O` are within 1.5-fold of each other in CC50: 55.6 nM for the first, 43.4 nM for the second.

Going from `N#CC1=C(SCC(=O)c2ccccc2)NC2=C(C(=O)CCC2)C1c1ccco1` (configuration not stated) to `Cc1ccc(C(=O)CSC2=C(C#N)C(c3ccco3)C3=C(CCCC3=O)N2)cc1` (configuration not stated), the CC50 rises from 1280 nM to 2400 nM (1.9-fold).

First: N#CC1=C2SCC(O)(c3ccccc3)N2C(=O)CC1c1ccccc1 (configuration not stated)
Second: COc1cccc(C2=CC(c3ccccc3)n3nnnc3N2)c1 (configuration not stated)
The CC50 of the first is 2.2-fold lower: 806 nM for the first, 1770 nM for the second.

Compared with `C[C@H]1CCC/C=C/C2C[C@H](O)CC2[C@H](O)/C=C/C(=O)O1` (some centres not stated), `O=c1[nH]c(=O)n([C@H]2C[C@H](O)[C@@H](CO)O2)cc1F` is 7.4-fold higher in CC50: 368 nM for the first, 2730 nM for the second.

Compared with `COC(=O)Nc1nc2ccc(C(=O)c3ccccc3)cc2[nH]1`, `COC(=O)Nc1nc2ccc(Sc3ccccc3)cc2[nH]1` is 2.5-fold higher in CC50: 229 nM for the first, 574 nM for the second.

`CCN(CC)c1ccc(-c2nn3c(-c4cccnc4)nnc3s2)cc1` and `COc1ccc(C2=Nn3c(nnc3-c3ccccn3)SC2)cc1` are within 1.5-fold of each other in CC50: 3270 nM for the first, 4780 nM for the second.

First: COc1ccc(C2=Nn3c(nnc3-c3ccccc3)SC2)cc1OC
Second: CCOc1ccc(C2=Nn3c(nnc3-c3ccccc3OC)SC2)cc1
The CC50 of the first is 210-fold higher: 5630 nM for the first, 26.7 nM for the second.

`N#CC1=C(SCC(=O)c2ccc(Br)cc2)NC2=C(C(=O)CCC2)C1c1ccco1` (configuration not stated) and `N#CC1=C(SCC(=O)c2ccc(Cl)cc2)NC2=C(C(=O)CCC2)C1c1ccco1` (configuration not stated) are within 1.5-fold of each other in CC50: 3050 nM for the first, 2790 nM for the second.

Compared with `COc1cccc2c(=O)c(SC(F)(F)C(F)C(F)(F)F)c(C)[nH]c12` (configuration not stated), `COC(=O)/C(=C1/Oc2cc(C)oc(=O)c2S1)C(F)(F)F` is 1.8-fold lower in CC50: 5130 nM for the first, 2850 nM for the second.

First: COc1cc(C2C(C#N)=C(N)Oc3cc(N)ccc32)cc(OC)c1OC (configuration not stated)
Second: COc1cc([C@@H]2c3cc4c(cc3[C@H](O)[C@H]3COC(=O)[C@H]23)OCO4)cc(OC)c1OC
The CC50 of the first is 9.3-fold higher: 326 nM for the first, 34.9 nM for the second.

`CCc1nc(N)nc(N)c1-c1ccc(Cl)cc1` and `Clc1ccc(-n2ncc3c(NCc4ccco4)ncnc32)cc1` are within 1.5-fold of each other in CC50: 2600 nM for the first, 3880 nM for the second.

First: COc1ccc(C(=O)C(CN2CCCC2)c2ccccc2)cc1 (configuration not stated)
Second: COc1ccc(OC)c(NS(=O)(=O)c2ccc(N3CCCC3=O)cc2)c1
The CC50 of the first is 37-fold higher: 7210 nM for the first, 193 nM for the second.

`CC(NC(=O)Nc1nnc(C(F)(F)F)s1)(C(F)(F)F)C(F)(F)F` and `CCC(NC(=O)Nc1nnc(C(F)(F)F)s1)(C(F)(F)F)C(F)(F)F` are within 1.5-fold of each other in CC50: 2590 nM for the first, 2220 nM for the second.

Compared with `CCCOc1ccc2nc(NC(=O)OC)[nH]c2c1`, `CCCSc1ccc2nc(NC(=O)OC)[nH]c2c1` is 2.2-fold higher in CC50: 178 nM for the first, 390 nM for the second.

Going from `N#CC1=C(N)NC(SCc2ccc(F)cc2)=C(C#N)C12CCCCC2` to `Fc1ccc2[nH]c3c(N4CCN(Cc5ccc6c(c5)OCO6)CC4)ncnc3c2c1`, the CC50 falls from 8190 nM to 2710 nM (3-fold).

`Cn1c(Cl)cnc1C1CC(=O)c2cc(Cl)ccc2O1` (configuration not stated) and `CCOC(=O)CSC1=C(C#N)C(c2ccc3c(c2)OCO3)CC(=O)N1` (configuration not stated) are within 1.5-fold of each other in CC50: 7300 nM for the first, 6580 nM for the second.

First: CC[C@H]1CN2CCc3cc(OC)c(OC)cc3[C@@H]2C[C@@H]1C[C@H]1NCCc2cc(OC)c(OC)cc21
Second: COc1cccc(N2CCN(c3ncnc4c3[nH]c3ccc(F)cc34)CC2C)c1 (configuration not stated)
The CC50 of the first is 39-fold lower: 58.2 nM for the first, 2270 nM for the second.

`COc1cccc(Cn2c(NCc3ccco3)nc3c2c(=O)n(C)c(=O)n3C)c1` and `c1coc(CNc2ncnc3ccccc23)c1` are within 1.5-fold of each other in CC50: 2550 nM for the first, 2400 nM for the second.

Compared with `c1ccc2c(c1)CCN(c1ncnc3c1[nH]c1ccccc13)C2`, `Cc1ccc2nc(NCc3ccccc3)[nH]c2c1` is 2.1-fold higher in CC50: 1560 nM for the first, 3240 nM for the second.

Going from `COc1ccc(Nc2cc(C)nc(-n3nc(C)cc3C)n2)cc1` to `N=c1c2c(-c3ccccc3)c(-c3ccccc3)n(Cc3ccccc3)c2ncn1CCCn1ccnc1`, the CC50 rises from 188 nM to 19900 nM (110-fold).

`Nc1nc(Cl)nc2c1ncn2[C@H]1C[C@H](O)[C@@H](CO)O1` showed a CC50 of 1810 nM.

`COc1ccc(CCn2c(=N)c(C#N)cc3c(=O)n4ccccc4nc32)cc1` was tested, and the CC50 was > 20000 nM (inactive).
In the case of `CCc1cn([C@H]2C[C@H](O)[C@@H](CO)O2)c(=O)[nH]c1=O`, the CC50 is reported as > 20000 nM (inactive).
In the case of `CC(=O)OC[C@H]1O[C@@H](n2ncc(=O)[nH]c2=O)[C@H](OC(C)=O)[C@@H]1OC(C)=O`, the CC50 is reported as > 20000 nM (inactive).
In the case of `COc1ccc2c(c1OC)C(=O)O[C@@H]2[C@H]1c2c(cc3c(c2OC)OCO3)CCN1C`, the CC50 is reported as > 20000 nM (inactive).
`CC(C)NCc1c(O)c(Br)cc2oc3c(c12)CCCC3` was tested, and the CC50 was > 20000 nM (inactive).
`COC(=O)CSc1nnc2n(-c3ccc(OC)cc3)c(=O)c3c4c(sc3n12)CCCCC4` was tested, and the CC50 was > 20000 nM (inactive).
`CCCCCOc1ccc(C(=O)NCC(=O)NCC(=O)OCC)cc1` was tested, and the CC50 was > 20000 nM (inactive).
With `CO[C@H]1C[C@@H]2CC[C@@H](C)[C@@](O)(O2)C(=O)C(=O)N2CCCC[C@H]2C(=O)O[C@H]([C@H](C)C[C@@H]2CC[C@@H](O)[C@H](OC)C2)CC(=O)[C@H](C)C=C(C)[C@@H](O)[C@@H](OC)C(=O)[C@H](C)C[C@H](C)C=CC=CC=C1C` the CC50 was > 20000 nM (inactive).
`CC(=O)/C(C#N)=C1\NC(=O)C(Cc2ccccc2Cl)S1` (configuration not stated) was tested, and the CC50 was > 20000 nM (inactive).
`COc1ccc2c(c1OC)C(=O)N1c3ccccc3C(=O)N(c3ccccc3F)C21` (configuration not stated) was tested, and the CC50 was > 20000 nM (inactive).
For `CC(=O)/C(C#N)=C1\NC(=O)C(Cc2ccccc2)S1` (configuration not stated), the CC50 was > 20000 nM (inactive).
In the case of `Cc1cccc(-c2nnc3n2N=C(c2ccc(Br)cc2)CS3)c1`, the CC50 is reported as > 20000 nM (inactive).
With `CC1(c2ccccc2)NCCN2C(=O)CSC21` (configuration not stated) the CC50 was > 20000 nM (inactive).
